Data as given in ChEMBL document CHEMBL4507327 (2021).

Columns and labels:
[1] = target: Cysteinyl leukotriene receptor 1 (Homo sapiens) (UniProt Q9Y271); assay: Inhibition of Leukotriene, Cysteinyl CysLT1 at 10 µM in the Eurofins-Panlabs radioligand binding assay (Eurofins_assay_250460); design: ligand concentration 0.3 nM, non-specific ligand with concentration 0.3 µM Leukotriene D4, incubation time 30 min, incubation temperature 25 °C; conditions: Compound concentration 10.0 uM
[2] = target: Myosin light chain kinase (Homo sapiens, UniProt Q32MK0); assay: caMLCK(MYL3LGF1) Takeda global kinase panel
[3] = target: Muscle, skeletal receptor tyrosine-protein kinase (Homo sapiens, UniProt O15146); assay: MUSK(MUSKLGY1) Takeda global kinase panel
Chain of Muscle, skeletal receptor tyrosine-protein kinase (O15146 whole entry): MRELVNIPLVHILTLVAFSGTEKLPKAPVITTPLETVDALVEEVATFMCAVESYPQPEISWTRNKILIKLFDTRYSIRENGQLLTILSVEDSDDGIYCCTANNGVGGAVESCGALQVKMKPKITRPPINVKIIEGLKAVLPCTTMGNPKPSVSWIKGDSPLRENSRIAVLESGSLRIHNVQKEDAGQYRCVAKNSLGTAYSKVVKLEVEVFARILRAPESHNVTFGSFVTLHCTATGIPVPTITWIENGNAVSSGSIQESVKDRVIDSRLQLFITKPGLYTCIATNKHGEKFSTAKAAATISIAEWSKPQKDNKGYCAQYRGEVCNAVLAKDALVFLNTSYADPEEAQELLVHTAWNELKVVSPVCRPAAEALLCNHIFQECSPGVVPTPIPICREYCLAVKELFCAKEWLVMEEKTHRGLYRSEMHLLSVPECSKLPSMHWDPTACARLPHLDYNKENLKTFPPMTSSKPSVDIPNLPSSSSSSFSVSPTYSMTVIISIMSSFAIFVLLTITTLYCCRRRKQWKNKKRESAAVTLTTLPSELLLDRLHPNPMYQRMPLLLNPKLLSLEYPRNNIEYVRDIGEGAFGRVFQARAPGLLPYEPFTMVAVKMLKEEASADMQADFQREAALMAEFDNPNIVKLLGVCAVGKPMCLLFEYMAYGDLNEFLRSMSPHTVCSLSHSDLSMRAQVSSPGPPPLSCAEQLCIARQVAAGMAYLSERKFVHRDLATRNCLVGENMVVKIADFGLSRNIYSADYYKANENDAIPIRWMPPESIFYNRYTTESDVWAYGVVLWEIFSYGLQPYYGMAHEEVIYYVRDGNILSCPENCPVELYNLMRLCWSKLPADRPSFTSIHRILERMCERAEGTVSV

[4] = target: Cyclin-dependent kinase 12 (Homo sapiens, UniProt Q9NYV4); assay: CRK7(CD12PHS1) Takeda global kinase panel
Activated CDC42 kinase 1 = Activated CDC42 kinase 1 (Homo sapiens, UniProt Q07912); assay: Ack(TNK2LGF1) Takeda global kinase panel
[5] = target: Serine/threonine-protein kinase TBK1 (Homo sapiens, UniProt Q9UHD2); assay: TBK1(TBK1CGF1) Takeda global kinase panel
[6] = target: Cannabinoid receptor 1 (Homo sapiens) (UniProt P21554); assay: Inhibition of Cannabinoid CB1 at compound concentration of 10.0 uM in the Eurofins-Panlabs radioligand binding assay (Eurofins_assay_217050); design: ligand concentration 2 nM; conditions: Compound concentration 10.0 uM
[7] = target: Serine/threonine-protein kinase 33 (Homo sapiens, UniProt Q9BYT3); assay: STK33(ST33LGF1) Takeda global kinase panel
[8] = target: GABA-A receptor; anion channel (Rattus norvegicus) (UniProt O09028+P15431+P18506+P18508+P19969+P20236+P23574+P23576+P28471+P28473+P30191+P62813+P63079+P63138+Q91ZM7+Q9ES14); assay: Inhibition of GABAA, Muscimol, Central at 10 µM in the Eurofins-Panlabs radioligand binding assay (Eurofins_assay_226500); type: protein-complex assay; conditions: Compound concentration 10.0 uM
[9] = target: 5-hydroxytryptamine receptor 2B (Homo sapiens) (UniProt P41595); conditions: Compound concentration 10.0 uM
[10] = target: Serine/threonine-protein kinase D2 (Homo sapiens, UniProt Q9BZL6); assay: PKD2(PRD2LHY1) Takeda global kinase panel
[11] = target: Interleukin-1 receptor-associated kinase 4 (Homo sapiens, UniProt Q9NWZ3); assay: IRAK4(IRK4LGF1) Takeda global kinase panel
[12] = target: NT-3 growth factor receptor (Homo sapiens, UniProt Q16288); assay: TRKC(NTR3LGN1) Takeda global kinase panel
[13] = target: Serine/threonine-protein kinase LATS2 (Homo sapiens, UniProt Q9NRM7); assay: LATS2(LAT2LGY1) Takeda global kinase panel
Chain of Serine/threonine-protein kinase LATS2 (Q9NRM7 whole entry): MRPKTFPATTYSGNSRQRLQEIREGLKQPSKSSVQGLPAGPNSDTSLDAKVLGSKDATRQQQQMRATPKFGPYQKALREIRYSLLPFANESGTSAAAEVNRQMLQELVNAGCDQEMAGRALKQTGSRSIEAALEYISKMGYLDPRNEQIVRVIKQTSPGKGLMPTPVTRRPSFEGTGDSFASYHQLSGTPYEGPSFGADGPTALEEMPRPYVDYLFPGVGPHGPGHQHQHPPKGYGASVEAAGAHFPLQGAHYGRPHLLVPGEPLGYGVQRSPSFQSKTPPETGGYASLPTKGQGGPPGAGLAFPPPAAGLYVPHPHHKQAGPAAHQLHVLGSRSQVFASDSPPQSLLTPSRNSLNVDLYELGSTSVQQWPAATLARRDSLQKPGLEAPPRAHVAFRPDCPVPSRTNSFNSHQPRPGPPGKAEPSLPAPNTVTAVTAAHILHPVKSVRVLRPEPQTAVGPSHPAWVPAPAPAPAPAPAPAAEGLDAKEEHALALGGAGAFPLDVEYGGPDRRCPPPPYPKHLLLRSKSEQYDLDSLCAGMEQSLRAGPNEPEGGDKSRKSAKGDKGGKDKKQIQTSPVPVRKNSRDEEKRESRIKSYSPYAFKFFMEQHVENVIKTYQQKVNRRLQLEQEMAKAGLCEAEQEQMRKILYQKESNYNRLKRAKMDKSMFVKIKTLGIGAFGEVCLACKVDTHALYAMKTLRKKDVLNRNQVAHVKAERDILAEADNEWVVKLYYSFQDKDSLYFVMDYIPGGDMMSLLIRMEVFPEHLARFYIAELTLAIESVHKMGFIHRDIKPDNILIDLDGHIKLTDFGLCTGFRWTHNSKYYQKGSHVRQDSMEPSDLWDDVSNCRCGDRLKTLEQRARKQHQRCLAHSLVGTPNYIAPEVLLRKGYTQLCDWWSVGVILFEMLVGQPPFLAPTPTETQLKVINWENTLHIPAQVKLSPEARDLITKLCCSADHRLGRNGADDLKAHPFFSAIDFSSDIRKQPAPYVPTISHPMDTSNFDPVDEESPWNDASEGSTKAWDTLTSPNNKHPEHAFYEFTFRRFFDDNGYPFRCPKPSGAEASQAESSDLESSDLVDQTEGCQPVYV

[14] = target: Serine/threonine-protein kinase Nek1 (Homo sapiens, UniProt Q96PY6); assay: Nek1(NEK1LGY1) Takeda global kinase panel
[15] = target: Adenosine receptor A2a (Homo sapiens) (UniProt P29274); conditions: Compound concentration 10.0 uM
[16] = target: T1, 5-hydroxytryptamine receptor 3A (Homo sapiens) (UniProt P46098); assay: Inhibition of Serotonin (5-Hydroxytryptamine) 5-HT3 at 10 µM in the Eurofins-Panlabs radioligand binding assay (Eurofins_assay_271910); design: ligand concentration 0.69 nM; conditions: Compound concentration 10.0 uM
T1 sequence (whole entry): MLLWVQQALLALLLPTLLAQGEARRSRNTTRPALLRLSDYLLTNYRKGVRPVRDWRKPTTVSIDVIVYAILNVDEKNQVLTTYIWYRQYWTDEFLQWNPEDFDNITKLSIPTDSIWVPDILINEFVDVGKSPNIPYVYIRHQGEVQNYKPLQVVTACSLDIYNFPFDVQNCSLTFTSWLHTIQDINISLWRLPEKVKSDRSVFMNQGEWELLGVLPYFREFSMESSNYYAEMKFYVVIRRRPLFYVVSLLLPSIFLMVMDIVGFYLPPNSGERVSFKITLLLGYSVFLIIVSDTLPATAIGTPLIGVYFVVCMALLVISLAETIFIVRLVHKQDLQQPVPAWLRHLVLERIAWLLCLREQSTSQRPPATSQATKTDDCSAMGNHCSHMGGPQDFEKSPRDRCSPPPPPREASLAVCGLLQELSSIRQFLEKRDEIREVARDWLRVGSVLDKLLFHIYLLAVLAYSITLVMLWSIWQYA

LIM domain kinase 1 = LIM domain kinase 1 (Homo sapiens, UniProt P53667); assay: LIMK1(LIM1LGY1) Takeda global kinase panel
[17] = target: L-type calcium channel, dihydropyridine site (Cav1.2 alpha-1C) (Homo sapiens, UniProt Q13936); assay: Inhibition of Calcium Channel L-Type, Dihydropyridine at 10 µM in the Eurofins-Panlabs radioligand binding assay (Eurofins_assay_214600); design: ligand concentration 0.1 nM, non-specific ligand with concentration 1 µM Nitrendipine, incubation time 90 min, incubation temperature 25 °C; conditions: Wistar, rat, cerebral cortices of rats, probe [3H] Nitrendipine; compound concentration 10 uM; target entry is the homologue from another species
[18] = target: Death-associated protein kinase 1 (Homo sapiens, UniProt P53355); assay: DAPK1(DAP1LGF1) Takeda global kinase panel
[19] = target: D(2) dopamine receptor (Homo sapiens) (UniProt P14416); conditions: Compound concentration 10.0 uM
Chain of D(2) dopamine receptor (Homo sapiens) (P14416 whole entry): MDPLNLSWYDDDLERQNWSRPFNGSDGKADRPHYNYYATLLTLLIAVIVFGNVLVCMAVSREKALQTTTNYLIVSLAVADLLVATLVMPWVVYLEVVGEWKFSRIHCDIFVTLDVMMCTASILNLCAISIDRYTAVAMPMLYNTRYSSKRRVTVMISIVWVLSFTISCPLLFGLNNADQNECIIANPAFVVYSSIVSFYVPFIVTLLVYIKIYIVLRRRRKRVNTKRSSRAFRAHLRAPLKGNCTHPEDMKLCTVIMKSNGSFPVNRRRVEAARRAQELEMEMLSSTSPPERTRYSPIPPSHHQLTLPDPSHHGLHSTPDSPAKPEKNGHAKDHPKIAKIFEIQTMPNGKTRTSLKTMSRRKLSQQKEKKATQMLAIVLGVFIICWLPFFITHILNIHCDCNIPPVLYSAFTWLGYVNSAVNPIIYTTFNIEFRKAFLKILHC

[20] = target: Cyclin-dependent kinase 5 (Homo sapiens, UniProt Q00535); assay: CDK5(CDK5CGS1) Takeda global kinase panel
Chain of Cyclin-dependent kinase 5 (Q00535 whole entry): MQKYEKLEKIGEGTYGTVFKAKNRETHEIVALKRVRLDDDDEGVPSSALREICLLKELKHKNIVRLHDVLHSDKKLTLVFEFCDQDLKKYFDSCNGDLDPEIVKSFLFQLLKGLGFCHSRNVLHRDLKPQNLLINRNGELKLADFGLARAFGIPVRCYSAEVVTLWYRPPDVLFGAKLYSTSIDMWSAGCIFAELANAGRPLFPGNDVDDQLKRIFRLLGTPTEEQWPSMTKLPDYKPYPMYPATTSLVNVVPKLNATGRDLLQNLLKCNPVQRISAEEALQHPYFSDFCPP

[21] = target: Adenosine receptor A3 (Homo sapiens) (UniProt P0DMS8); conditions: Compound concentration 10.0 uM
[22] = target: Insulin-like growth factor 1 receptor (Homo sapiens, UniProt P08069); assay: IGF1R(IGF1LGF1) Takeda global kinase panel
[23] = target: T2, Muscarinic acetylcholine receptor M1 (Homo sapiens) (UniProt P11229); conditions: Compound concentration 10.0 uM
T2 sequence (whole entry): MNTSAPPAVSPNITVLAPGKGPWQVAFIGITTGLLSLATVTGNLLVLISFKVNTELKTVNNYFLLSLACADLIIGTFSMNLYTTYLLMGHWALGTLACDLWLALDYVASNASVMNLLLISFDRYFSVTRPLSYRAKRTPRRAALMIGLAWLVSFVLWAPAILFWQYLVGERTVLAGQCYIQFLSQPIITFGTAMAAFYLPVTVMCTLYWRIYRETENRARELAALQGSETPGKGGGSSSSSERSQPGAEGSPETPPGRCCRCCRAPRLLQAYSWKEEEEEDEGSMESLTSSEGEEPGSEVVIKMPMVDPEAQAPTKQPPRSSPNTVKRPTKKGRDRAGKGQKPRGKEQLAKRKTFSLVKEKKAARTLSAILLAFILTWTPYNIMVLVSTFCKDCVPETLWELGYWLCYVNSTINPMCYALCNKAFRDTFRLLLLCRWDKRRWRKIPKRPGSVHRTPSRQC

[24] = target: Insulin receptor-related protein (Homo sapiens, UniProt P14616); assay: IRR(INSSLGF1) Takeda global kinase panel
[25] = target: Cyclin-dependent kinase 13 (Homo sapiens, UniProt Q14004); assay: CHED(CD13PHS1) Takeda global kinase panel
Chain of Cyclin-dependent kinase 13 (Q14004 whole entry): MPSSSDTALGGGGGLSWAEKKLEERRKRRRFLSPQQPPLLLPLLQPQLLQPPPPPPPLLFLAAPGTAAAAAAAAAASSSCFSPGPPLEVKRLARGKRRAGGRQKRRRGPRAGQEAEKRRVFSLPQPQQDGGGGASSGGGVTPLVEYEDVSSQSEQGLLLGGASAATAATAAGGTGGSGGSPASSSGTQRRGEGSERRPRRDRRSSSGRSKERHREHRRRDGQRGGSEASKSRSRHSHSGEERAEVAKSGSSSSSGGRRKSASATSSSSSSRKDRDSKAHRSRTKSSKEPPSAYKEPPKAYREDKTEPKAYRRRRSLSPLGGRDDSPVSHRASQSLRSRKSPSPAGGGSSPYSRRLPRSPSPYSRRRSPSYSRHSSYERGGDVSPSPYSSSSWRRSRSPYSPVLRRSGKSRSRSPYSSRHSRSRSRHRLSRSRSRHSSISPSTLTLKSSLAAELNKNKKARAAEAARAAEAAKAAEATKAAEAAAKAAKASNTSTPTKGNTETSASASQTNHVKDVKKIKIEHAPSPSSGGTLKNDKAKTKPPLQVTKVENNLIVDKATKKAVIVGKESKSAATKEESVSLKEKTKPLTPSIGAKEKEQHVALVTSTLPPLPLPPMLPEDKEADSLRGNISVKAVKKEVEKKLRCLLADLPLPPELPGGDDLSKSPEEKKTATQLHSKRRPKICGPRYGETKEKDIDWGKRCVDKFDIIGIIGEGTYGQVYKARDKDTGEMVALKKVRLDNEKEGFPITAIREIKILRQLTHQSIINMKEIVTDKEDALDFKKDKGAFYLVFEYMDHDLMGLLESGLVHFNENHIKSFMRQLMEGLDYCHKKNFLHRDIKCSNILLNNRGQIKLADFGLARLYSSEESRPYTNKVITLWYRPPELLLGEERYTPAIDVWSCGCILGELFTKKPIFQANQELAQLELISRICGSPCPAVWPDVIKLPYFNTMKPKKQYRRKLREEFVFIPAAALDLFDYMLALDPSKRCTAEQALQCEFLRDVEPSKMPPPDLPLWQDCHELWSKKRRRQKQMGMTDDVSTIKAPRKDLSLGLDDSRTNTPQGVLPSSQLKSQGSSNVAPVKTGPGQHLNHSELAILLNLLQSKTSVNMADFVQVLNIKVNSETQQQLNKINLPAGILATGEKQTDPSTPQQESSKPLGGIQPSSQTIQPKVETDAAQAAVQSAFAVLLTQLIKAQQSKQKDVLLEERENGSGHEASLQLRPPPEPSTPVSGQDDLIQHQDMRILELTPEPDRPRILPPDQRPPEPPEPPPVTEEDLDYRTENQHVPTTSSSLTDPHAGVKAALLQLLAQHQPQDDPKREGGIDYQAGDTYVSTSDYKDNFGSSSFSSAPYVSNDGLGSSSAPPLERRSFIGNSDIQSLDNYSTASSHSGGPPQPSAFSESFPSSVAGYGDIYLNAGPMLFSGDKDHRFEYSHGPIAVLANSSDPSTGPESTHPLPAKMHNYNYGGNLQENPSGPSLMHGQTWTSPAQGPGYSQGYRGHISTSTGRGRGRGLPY

[26] = target: Delta-type opioid receptor (Homo sapiens) (UniProt P41143); conditions: Compound concentration 10.0 uM
Chain of Delta-type opioid receptor (Homo sapiens) (P41143 whole entry, canonical isoform): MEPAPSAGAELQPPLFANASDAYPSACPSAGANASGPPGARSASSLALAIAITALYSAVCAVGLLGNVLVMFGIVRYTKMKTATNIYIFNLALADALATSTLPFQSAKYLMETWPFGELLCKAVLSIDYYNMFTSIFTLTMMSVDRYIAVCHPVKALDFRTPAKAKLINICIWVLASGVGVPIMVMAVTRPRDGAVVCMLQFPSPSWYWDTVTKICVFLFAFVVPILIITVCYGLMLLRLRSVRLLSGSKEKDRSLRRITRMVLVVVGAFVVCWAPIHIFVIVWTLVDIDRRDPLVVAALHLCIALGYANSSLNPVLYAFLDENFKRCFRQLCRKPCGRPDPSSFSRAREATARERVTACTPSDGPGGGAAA

[27] = target: Phosphatidylinositol 4,5-bisphosphate 3-kinase catalytic subunit beta isoform (Homo sapiens, UniProt P42338); assay: PIK3CB(PI3BCGRK) Takeda global kinase panel

Chain of Cysteinyl leukotriene receptor 1 (Homo sapiens) (Q9Y271 whole entry): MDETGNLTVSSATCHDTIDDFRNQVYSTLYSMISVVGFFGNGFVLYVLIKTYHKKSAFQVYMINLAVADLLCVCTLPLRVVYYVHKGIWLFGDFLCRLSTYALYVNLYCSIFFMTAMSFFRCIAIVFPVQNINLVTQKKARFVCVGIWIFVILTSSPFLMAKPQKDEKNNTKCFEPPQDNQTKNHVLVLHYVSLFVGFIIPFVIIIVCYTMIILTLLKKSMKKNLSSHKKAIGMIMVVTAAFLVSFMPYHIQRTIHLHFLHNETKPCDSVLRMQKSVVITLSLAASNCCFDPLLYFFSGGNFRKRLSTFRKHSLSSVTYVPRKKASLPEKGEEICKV

SMILES	inhibition [1]	IC50 [2]	IC50 [3]	IC50 [4]	IC50 (Activated CDC42 kinase 1)	IC50 [5]	inhibition [6]	IC50 [7]	inhibition [8]	inhibition [9]	IC50 [10]	IC50 [11]	IC50 [12]	IC50 [13]	IC50 [14]	inhibition [15]	inhibition [16]	IC50 (LIM domain kinase 1)	inhibition at 90 min, 10 µM [17]	IC50 [18]	further results
CN1C(=O)[C@@H](N2CCc3cn(Cc4ccccc4)nc3C2=O)COc2ccccc21 [TP-030-1]	0%	1000 nM	1000 nM	1000 nM	1000 nM	1000 nM	5%	1000 nM	-1%	6%	1000 nM	1000 nM	1000 nM	1000 nM	1000 nM	10%	6%	1000 nM	-18% (not active)	1000 nM	inhibition [19]: 7%; IC50 [20]: 1000 nM; inhibition [21]: 15%; IC50 [22]: 1000 nM; inhibition [23]: 0%; IC50 [24]: 1000 nM; IC50 [25]: 1000 nM; inhibition [26]: 3%; IC50 [27]: 1000 nM
CN1C(=O)[C@@H](N2CCc3cn(CC4CCS(=O)(=O)CC4)nc3C2=O)COc2ccccc21 [TP-030n]	0%	1000 nM	1000 nM	1000 nM	1000 nM	1000 nM	-5%	1000 nM	-7%	-2%	1000 nM	1000 nM	1000 nM	1000 nM	1000 nM	-8%	16%	1000 nM	-6% (not active)	1000 nM	inhibition [19]: 2%; IC50 [20]: 1000 nM; inhibition [21]: 0%; IC50 [22]: 1000 nM; inhibition [23]: 2%; IC50 [24]: 1000 nM; IC50 [25]: 1000 nM; inhibition [26]: -8%; IC50 [27]: 1000 nM
